US7683061B2, “Triazine dimers for the treatment of autoimmune diseases” (ProMetic BioSciences Inc., priority 2003, dated 2010)
Where two headings read alike, the source gives them in different places.

Tests used:
[1] = biological target: T1, Fc portion of human IgG (binding of protein A to human IgG); assay: Competitive protein A binding ELISA
T1 construct: fused on or other part: Horseradish peroxidase chemically conjugated to the IgG (HRP-IgG)
Experimental: As described above, this assay evaluates the ability of the exemplified compounds to mimic protein A. Such compounds can bind to the Fc portion of human IgG as ascertained by the inhibition of binding of protein A to human IgG. The competitive protein A binding ELISA assay was performed on a 96-well plate Maxisorp surface to enhance the binding of protein A to the bottom of the plate. The wells were coated with 100 μL of protein A (0.8 μg) and incubated overnight at 4° C. After incubation, unbound protein A was removed by three washes with phosphate buffer saline (PBS). The plate was then incubated with 100 μL/well of a 2% solution of bovine serum albumin (BSA) for 1 h at 37° C. to block non specific protein binding. After incubation, the plate was washed to times with PBS. 50 μL of compound or protein A, diluted in PBS or PBS-20% DMSO at appropriate concentration, were added to the wells followed by addition of 50 μL of peroxidase-conjugated human IgG (HRP-IgG). After 1 h incubation at 37° C., the plate was washed free times with PBS to remove unbound HRP-IgG. Bound HRP-IgG was detected by incubation with 100 μL of 2,2′-Azino-di[3-ethylbenzothiazoline sulfonate]diammonium salt crystals (ABTS) solution for 20 min in the dark at room temperature. The plate was then read at 405 nm on a EL 800, universal Microplate reader (Bio-Tek). Data was analyzed in Microsoft Excel and the concentration of compound which inhibits 50% binding of protein A (IC50) was calculated using Prism software.
Table 1 represents the IC50 of compounds tested in the competitive protein A binding ELISA assay, which consists of a side-by-side analysis in PBS and PBS-20% DMSO. DMSO was used to increase the solubility of some of the compounds.

[2] = system: TNFα-induced apoptosis, WEHI-13VAR cells; assay: TNFα induced apoptosis in WEHI-13VAR cells (MTT); type: cell-based, murine; details: Mus musculus; for inhibition at 10 µM: 1 × 10^−5M; for inhibition at 20 µM: 2 × 10^−5M; for inhibition at 40 µM: 4 × 10^−5M; for inhibition at 5 µM: 5 × 10^−6M
Experimental: Effect of compounds on TNFα-induced apoptosis was measured by a standard biological assay using WEHI-13VAR cells. These cells undergo apoptosis when they are incubated in the presence of TNFα and actinomycin D. 2×10^4 WEHI-13VAR cells were incubated in RPMI supplemented with 1% sodium pyruvate and 10% FBS, overnight at 37° C. for cell adherence. The cells were then cultured in the presence of 1 μg/mL of actinomycin D (to inhibit protein synthesis) and 0.04 nM TNFα with or without compounds at 37° C. After 16-24 h, 50 μL of a solution of 2 mg/mL of MTT was added to each well and the plate was then incubated for 4 h at 37° C. Only viable cells metabolize MTT to form formazan salt, which is detectable by the measurement of absorbance at 570 nm. After the incubation, the plate was inverted to remove medium and dead cells. 150 μL DMSO was added to each well to stop the reaction and solubilize the formazan salt. Optical density was read on a EL 800, universal Microplate reader (Bio-Tek). A decrease in the optical density is direct evidence of cell apoptosis induced by TNFα. Compounds were also compared to the activity of an anti-TNFα neutralizing antibody.

[3] = system: TNFα production, J774A-1 cells; assay: LPS-induced TNFα production in J774A-1 cells (ELISA); type: cell-based; details: Mus musculus, J774.A1, 24 h, read-out: IC50 (μM), inhibition of TNFα released by LPS induction
Experimental: Effect of compounds on TNFα production was measured by ELISA using J774-1 cells stimulated by LPS. J774-1 cells were cultured in the presence or absence of LPS and compound. Cells were cultured at 37° C. for 24 h and thereafter the supernatants were collected for the determination of the concentration of TNFα by ELISA as recommended by the manufacturer (BD Biosciences). Data was analyzed in Microsoft Excel and the concentration of compound which inhibits 50% of TNFα production (IC50) was calculated using Prism software.

[4] = Table 1, PBS-20% DMSO, read-out: IC50 (μM): Assay in PBS-20% DMSO
[5] = Table 1, PBS, read-out: IC50 (μM): Assay in PBS
[6] = Table 2, PBS-20% DMSO, n = 5 or 6, read-out: IC50 (n = 5 or 6) PBS-20% DMSO
[7] = Table 2, PBS, n = 5 or 6, read-out: IC50 (n = 5 or 6) PBS

Nc1cccc(Nc2nc(NCCO)nc(Nc3ccc(CNc4nc(Nc5cccc(N)c5)nc(Nc5cccc(N)c5)n4)cc3)n2)c1 [Compound 42]
IC50 [1, 4]: 0.05 µM | IC50 [1, 5]: 0.05 µM | inhibition at 10 µM [2]: -1.7% | inhibition at 20 µM [2]: 0.5% | inhibition at 40 µM [2]: 30.4% | inhibition at 5 µM [2]: -3.1%

NCCNc1nc(NCc2cccc(CNc3nc(NCCc4ccc(O)cc4)nc(Nc4ccccc4)n3)c2)nc(Nc2ccccc2)n1 [Compound 40]
IC50 [3]: 87.2 µM

Nc1ccc(CCNc2nc(NCC3CCN(c4nc(NCCc5ccc(N)cc5)nc(Nc5ccccc5)n4)CC3)nc(Nc3ccccc3)n2)cc1 [Compound 32]
IC50 [1, 4]: 2 µM | IC50 [1, 5]: 33 µM

Cc1ccc(Nc2nc(NCCc3ccc(N)cc3)nc(Nc3ccccc3)n2)cc1CNc1nc(NCCO)nc(Nc2ccccc2)n1 [Compound 34]
IC50 [1, 4]: 1 µM | IC50 [1, 5]: 23 µM

Nc1cccc(Nc2nc(N)nc(Nc3cccc(Nc4nc(N)nc(Nc5cccc(N)c5)n4)c3)n2)c1 [Compound 51]
IC50 [1, 4]: 6 µM | IC50 [1, 5]: 0.6 µM

Nc1ccc(CNc2nc(NCCNc3nc(NCc4ccc(N)cc4)nc(Nc4ccccc4)n3)nc(Nc3ccccc3)n2)cc1 [Compound 6]
IC50 [1, 4]: 0.4 µM | IC50 [1, 5]: 2.4 µM

NCCNc1nc(NCCc2ccc(Oc3nc(NCCc4ccc(O)cc4)nc(Nc4ccccc4)n3)cc2)nc(Nc2ccccc2)n1 [Compound 13]
IC50 [1, 4]: 70 µM | IC50 [1, 5]: 33 µM | IC50 [3]: 13.4 µM

Oc1ccc(CCNc2nc(NCCc3ccc(Nc4nc(Nc5ccccc5)nc(N5CCNCC5)n4)cc3)nc(Nc3ccccc3)n2)cc1 [Compound 18]
IC50 [1, 4]: 43 µM | IC50 [1, 5]: 26 µM | IC50 [3]: 10.2 µM

Nc1ccc(CCNc2nc(Nc3ccccc3)nc(N3CCN(c4nc(NCCO)nc(Nc5ccccc5)n4)CC3)n2)cc1 [Compound 33]
IC50 [1, 4]: 18 µM | IC50 [1, 5]: 18 µM | IC50 [3]: 20.6 µM

Nc1ccc(CNc2nc(NCc3ccc(CNc4nc(NCc5ccc(N)cc5)nc(Nc5cccc(N)c5)n4)cc3)nc(Nc3cccc(N)c3)n2)cc1 [Compound 48]
IC50 [1, 4]: 0.05 µM | IC50 [1, 5]: 0.2 µM

O=C(O)[C@H](Nc1nc(NCCNc2nc(NCCc3ccc(O)cc3)nc(N[C@@H](C(=O)O)c3ccccc3)n2)nc(NCCc2ccc(O)cc2)n1)c1ccccc1 [Compound 10]
IC50 [1, 4]: 85 µM | IC50 [1, 5]: 69 µM

Nc1cccc(Nc2nc(NCCO)nc(Nc3cccc(Nc4nc(NCCO)nc(Nc5cccc(N)c5)n4)c3)n2)c1 [Compound 49]
IC50 [1, 4]: 0.5 µM | IC50 [1, 5]: 0.3 µM

Nc1cccc(Nc2nc(NCCO)nc(Nc3ccc(Nc4nc(NCCO)nc(Nc5cccc(N)c5)n4)cc3)n2)c1 [Compound 47]
IC50 [1, 4]: 0.2 µM | IC50 [1, 5]: 0.2 µM

OCCNc1nc(NCCc2ccc(Oc3nc(NCCc4ccc(O)cc4)nc(Nc4ccccc4)n3)cc2)nc(Nc2ccccc2)n1 [Compound 21]
IC50 [3]: 4.8 µM

Nc1cccc(Nc2nc(NCCO)nc(Nc3cccc(CNc4nc(Nc5cccc(N)c5)nc(Nc5cccc(N)c5)n4)c3)n2)c1 [Compound 43]
IC50 [1, 4]: 0.05 µM | IC50 [1, 5]: 0.08 µM

COC(=O)c1ccccc1Nc1nc(NCCNc2nc(NCCc3ccc(O)cc3)nc(Nc3ccccc3C(=O)OC)n2)nc(NCCc2ccc(O)cc2)n1 [Compound 2]
inhibition at 10 µM [2]: 43.7% | inhibition at 20 µM [2]: 48.4% | inhibition at 40 µM [2]: 48.3% | inhibition at 5 µM [2]: 37.3%

Nc1cccc(CNc2nc(Nc3ccc(CNc4nc(N)nc(Nc5cccc(N)c5)n4)cc3)nc(Nc3cccc(N)c3)n2)c1 [Compound 45]
IC50 [1, 4]: 0.08 µM | IC50 [1, 5]: 0.1 µM | inhibition at 10 µM [2]: 2.9% | inhibition at 20 µM [2]: 4.1% | inhibition at 40 µM [2]: 32.9% | inhibition at 5 µM [2]: -0.3%

CC(=O)NCCNc1nc(NCCc2ccc(Nc3nc(NCCc4ccc(O)cc4)nc(Nc4ccccc4)n3)cc2)nc(Nc2ccccc2)n1 [Compound 15]
IC50 [1, 4]: 35 µM | IC50 [3]: 14.2 µM

O=C(O)c1ccccc1Nc1nc(NCCNc2nc(NCCc3ccc(O)cc3)nc(Nc3ccccc3C(=O)O)n2)nc(NCCc2ccc(O)cc2)n1 [Compound 9]
IC50 [1, 4]: 50 µM

Nc1ccc(CCNc2nc(NCCCCCCNc3nc(NCCc4ccc(N)cc4)nc(Nc4cccc(N)c4)n3)nc(Nc3cccc(N)c3)n2)cc1 [Compound 31]
IC50 [1, 4]: 0.12 µM | IC50 [1, 5]: 0.99 µM

NCCCNc1nc(NCCc2ccc(Nc3nc(NCCc4ccc(O)cc4)nc(Nc4ccccc4)n3)cc2)nc(Nc2ccccc2)n1 [Compound 24]
IC50 [3]: 11.5 µM

COC(=O)[C@H](Cc1ccc(O)cc1)Nc1nc(NCCNc2nc(NCCc3cc4ccccc4[nH]3)nc(N[C@@H](Cc3ccc(O)cc3)C(=O)OC)n2)nc(NCCc2cc3ccccc3[nH]2)n1 [Compound 8]
IC50 [1, 4]: 28 µM

COc1ccccc1Nc1nc(NCCN)nc(NCCc2ccc(Nc3nc(NCCc4ccc(O)cc4)nc(Nc4ccccc4)n3)cc2)n1 [Compound 22]
IC50 [3]: 62.1 µM

COc1ccccc1Nc1nc(NCCCCN)nc(NCCc2ccc(Oc3nc(NCCc4ccc(O)cc4)nc(Nc4ccccc4)n3)cc2)n1 [Compound 23]
IC50 [3]: 16.5 µM

Oc1ccc(CCNc2nc(NCc3ccccc3Nc3nc(NCCc4ccc(O)cc4)nc(Nc4ccccc4)n3)nc(Nc3ccccc3)n2)cc1 [Compound 37]
IC50 [1, 4]: 23 µM

Oc1ccc(CCNc2nc(Nc3ccccc3)nc(N[C@H](COc3nc(NCCc4ccc(O)cc4)nc(Nc4ccccc4)n3)c3ccccc3)n2)cc1 [Compound 39]
IC50 [1, 4]: 43 µM

Oc1ccc(CCNc2nc(Nc3ccccc3)nc(Nc3cccc(Nc4nc(NCCc5ccc(O)cc5)nc(Nc5ccccc5)n4)c3)n2)cc1 [Compound 38]
IC50 [3]: 9.5 µM

Nc1cccc(Nc2nc(Nc3cccc(Nc4nc(Nc5cccc(N)c5)nc(NC(CO)CO)n4)c3)nc(NC(CO)CO)n2)c1 [Compound 50]
IC50 [1, 4]: 1 µM | IC50 [1, 5]: 0.4 µM

OCCNc1nc(NCC2CCN(c3nc(NCCO)nc(Nc4ccccc4)n3)CC2)nc(Nc2ccccc2)n1 [Compound 26]
inhibition at 10 µM [2]: 27.3% | inhibition at 20 µM [2]: 38% | inhibition at 40 µM [2]: -11.5% | inhibition at 5 µM [2]: 9.7%

Nc1cccc(Nc2nc(N)nc(NCc3ccc(CNc4nc(N)nc(Nc5cccc(N)c5)n4)cc3)n2)c1 [Compound 41]
IC50 [1, 4]: 0.02 µM | IC50 [1, 5]: 0.03 µM

Nc1ccc(CCNc2nc(Nc3cccc(N)c3)nc(N3CCN(c4nc(NCCc5ccc(N)cc5)nc(Nc5cccc(N)c5)n4)CC3)n2)cc1 [Compound 29]
IC50 [1, 4]: 0.003 µM | IC50 [1, 5]: 0.2 µM | IC50 [1, 6]: 0.0029 µM | IC50 [1, 7]: 0.225 µM

Nc1ccc(CCNc2nc(Nc3ccccc3)nc(N3CCN(c4nc(NCCc5ccc(N)cc5)nc(Nc5ccccc5)n4)CC3)n2)cc1 [Compound 36]
IC50 [1, 4]: 16 µM

Oc1ccc(CCNc2nc(Nc3ccccc3)nc(Nc3ccc(CNc4nc(NCCc5cnc[nH]5)nc(Nc5ccccc5)n4)cc3)n2)cc1 [Compound 27]
IC50 [1, 4]: 28 µM

Nc1ccc(CCNc2nc(Nc3ccccc3)nc(Nc3cccc(CNc4nc(NCCO)nc(Nc5ccccc5)n4)c3)n2)cc1 [Compound 35]
IC50 [1, 4]: 1 µM | IC50 [1, 5]: 23 µM

Nc1ccc(CCNc2nc(NCC3CCN(c4nc(NCCc5ccc(N)cc5)nc(Nc5cccc(N)c5)n4)CC3)nc(Nc3cccc(N)c3)n2)cc1 [Compound 30]
IC50 [1, 4]: 0.03 µM | IC50 [1, 5]: 0.4 µM | IC50 [1, 6]: 0.033 µM | IC50 [1, 7]: 0.426 µM

Nc1cccc(Nc2nc(N)nc(Nc3cccc(Nc4nc(NCCO)nc(Nc5cccc(N)c5)n4)c3)n2)c1 [Compound 46]
IC50 [1, 4]: 0.8 µM | IC50 [1, 5]: 0.2 µM

Nc1cccc(Nc2nc(NCCO)nc(N3CCN(c4nc(Nc5cccc(N)c5)nc(Nc5cccc(N)c5)n4)CC3)n2)c1 [Compound 44]
IC50 [1, 4]: 0.04 µM | IC50 [1, 5]: 0.09 µM
